{"source": "patent US20170190671A1", "about": "“BIS(ARYL)CATECHOL DERIVATIVES AS HERBICIDES” (E I DU PONT DE NEMOURS AND COMPANY, priority 2014, published 2017)", "assay_in_all_cases": "Test D postemergence", "format_in_all_cases": "in vivo", "conditions_in_all_cases": "scale 0 to 100", "key": {"[1]": {"tested_on": "Italian ryegrass (Lolium multiflorum)", "procedure,_shortened": "(§1)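 Assessment is visual, relative to untreated controls, 14 to 21 days after application, with 100 meaning complete control. Seeds in silt loam receive preemergence spray; seedlings at the 1- to 4-leaf stage receive postemergence spray.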"}, "[2]": {"tested_on": "Russian thistle (Salsola kali)", "procedure,_shortened": "as §1"}, "[3]": {"tested_on": "blackgrass (Alopecurus myosuroides)", "procedure,_shortened": "as §1"}, "[4]": {"tested_on": "bluegrass (annual bluegrass, Poa annua)", "procedure,_shortened": "as §1"}, "[5]": {"tested_on": "canarygrass (Phalaris minor)", "procedure,_shortened": "as §1"}, "[6]": {"tested_on": "chamomile (scentless chamomile, Matricaria inodora)", "procedure,_shortened": "as §1"}, "[7]": {"tested_on": "chickweed (common chickweed, Stellaria media)", "procedure,_shortened": "as §1"}, "[8]": {"tested_on": "cutleaf geranium (Geranium dissectum)", "procedure,_shortened": "as §1"}, "[9]": {"tested_on": "deadnettle (henbit deadnettle, Lamium amplexicaule)", "procedure,_shortened": "as §1"}, "[10]": {"tested_on": "downy bromegrass (Bromus tectorum)", "procedure,_shortened": "as §1"}, "[11]": {"tested_on": "field violet (Viola arvensis)", "procedure,_shortened": "as §1"}, "[12]": {"tested_on": "galium (catchweed bedstraw, Galium aparine)", "procedure,_shortened": "as §1"}, "[13]": {"tested_on": "green foxtail (Setaria viridis)", "procedure,_shortened": "as §1"}, "[14]": {"tested_on": "kochia (Kochia scoparia)", "procedure,_shortened": "as §1"}, "[15]": {"tested_on": "pigweed (Amaranthus retroflexus)", "procedure,_shortened": "as §1"}, "[16]": {"tested_on": "speedwell (bird's-eye speedwell, Veronica persica)", "procedure,_shortened": "as §1"}, "[17]": {"tested_on": "wild buckwheat (Polygonum convolvulus)", "procedure,_shortened": "as §1"}, "[18]": {"tested_on": "wild mustard (Sinapis arvensis)", "procedure,_shortened": "as §1"}, "[19]": {"tested_on": "wild radish (Raphanus raphanistrum)", "procedure,_shortened": "as §1"}, "[20]": {"tested_on": "winter barley (Hordeum vulgare)", "procedure,_shortened": "as §1"}, "[21]": {"tested_on": "winter wheat (Triticum aestivum)", "procedure,_shortened": "as §1"}}, "data": [{"smiles": "Fc1cnc(Oc2c(F)cccc2Oc2ncc(Cl)cn2)nc1", "note": "[Compound 23]", "values": [{"measurement": "Plant response rating, Ryegrass, Italian", "setting": "[1]; 16 g ai/ha", "result": 0}, {"measurement": "Plant response rating, Ryegrass, Italian", "setting": "[1]; 31 g ai/ha", "result": 5}, {"measurement": "Plant response rating, Ryegrass, Italian", "setting": "[1]; 62 g ai/ha", "result": 10}, {"measurement": "Plant response rating, Ryegrass, Italian", "setting": "[1]; 125 g ai/ha", "result": 25}, {"measurement": "Plant response rating, Russian Thistle", "setting": "[2]; 16 g ai/ha", "result": 0}, {"measurement": "Plant response rating, Russian Thistle", "setting": "[2]; 31 g ai/ha", "result": 5}, {"measurement": "Plant response rating, Russian Thistle", "setting": "[2]; 62 g ai/ha", "result": 10}, {"measurement": "Plant response rating, Russian Thistle", "setting": "[2]; 125 g ai/ha", "result": 15}, {"measurement": "Plant response rating, Blackgrass", "setting": "[3]; 16 g ai/ha", "result": 10}, {"measurement": "Plant response rating, Blackgrass", "setting": "[3]; 31 g ai/ha", "result": 20}, {"measurement": "Plant response rating, Blackgrass", "setting": "[3]; 62 g ai/ha", "result": 35}, {"measurement": "Plant response rating, Blackgrass", "setting": "[3]; 125 g ai/ha", "result": 55}, {"measurement": "Plant response rating, Bluegrass", "setting": "[4]; 16 g ai/ha", "result": 5}, {"measurement": "Plant response rating, Bluegrass", "setting": "[4]; 31 g ai/ha", "result": 10}, {"measurement": "Plant response rating, Bluegrass", "setting": "[4]; 62 g ai/ha", "result": 15}, {"measurement": "Plant response rating, Bluegrass", "setting": "[4]; 125 g ai/ha", "result": 35}, {"measurement": "Plant response rating, Canarygrass", "setting": "[5]; 16 g ai/ha", "result": 10}, {"measurement": "Plant response rating, Canarygrass", "setting": "[5]; 31 g ai/ha", "result": 20}, {"measurement": "Plant response rating, Canarygrass", "setting": "[5]; 62 g ai/ha", "result": 25}, {"measurement": "Plant response rating, Canarygrass", "setting": "[5]; 125 g ai/ha", "result": 55}, {"measurement": "Plant response rating, Chamomile", "setting": "[6]; 16 g ai/ha", "result": 0}, {"measurement": "Plant response rating, Chamomile", "setting": "[6]; 31 g ai/ha", "result": 0}, {"measurement": "Plant response rating, Chamomile", "setting": "[6]; 62 g ai/ha", "result": 0}, {"measurement": "Plant response rating, Chamomile", "setting": "[6]; 125 g ai/ha", "result": 5}, {"measurement": "Plant response rating, Chickweed", "setting": "[7]; 16 g ai/ha", "result": 60}, {"measurement": "Plant response rating, Chickweed", "setting": "[7]; 31 g ai/ha", "result": 70}, {"measurement": "Plant response rating, Chickweed", "setting": "[7]; 62 g ai/ha", "result": 70}, {"measurement": "Plant response rating, Chickweed", "setting": "[7]; 125 g ai/ha", "result": 80}, {"measurement": "Plant response rating, Geranium, Cutleaf", "setting": "[8]; 16 g ai/ha", "result": 25}, {"measurement": "Plant response rating, Geranium, Cutleaf", "setting": "[8]; 31 g ai/ha", "result": 45}, {"measurement": "Plant response rating, Geranium, Cutleaf", "setting": "[8]; 62 g ai/ha", "result": 45}, {"measurement": "Plant response rating, Geranium, Cutleaf", "setting": "[8]; 125 g ai/ha", "result": 65}, {"measurement": "Plant response rating, Deadnettle", "setting": "[9]; 16 g ai/ha", "result": 10}, {"measurement": "Plant response rating, Deadnettle", "setting": "[9]; 31 g ai/ha", "result": 20}, {"measurement": "Plant response rating, Deadnettle", "setting": "[9]; 62 g ai/ha", "result": 55}, {"measurement": "Plant response rating, Deadnettle", "setting": "[9]; 125 g ai/ha", "result": 70}, {"measurement": "Plant response rating, Bromegrass, Downy", "setting": "[10]; 16 g ai/ha", "result": 5}, {"measurement": "Plant response rating, Bromegrass, Downy", "setting": "[10]; 31 g ai/ha", "result": 10}, {"measurement": "Plant response rating, Bromegrass, Downy", "setting": "[10]; 62 g ai/ha", "result": 20}, {"measurement": "Plant response rating, Bromegrass, Downy", "setting": "[10]; 125 g ai/ha", "result": 25}, {"measurement": "Plant response rating, Field Violet", "setting": "[11]; 16 g ai/ha", "result": 15}, {"measurement": "Plant response rating, Field Violet", "setting": "[11]; 31 g ai/ha", "result": 60}, {"measurement": "Plant response rating, Field Violet", "setting": "[11]; 62 g ai/ha", "result": 60}, {"measurement": "Plant response rating, Field Violet", "setting": "[11]; 125 g ai/ha", "result": 70}, {"measurement": "Plant response rating, Galium", "setting": "[12]; 16 g ai/ha", "result": 65}, {"measurement": "Plant response rating, Galium", "setting": "[12]; 31 g ai/ha", "result": 70}, {"measurement": "Plant response rating, Galium", "setting": "[12]; 62 g ai/ha", "result": 85}, {"measurement": "Plant response rating, Galium", "setting": "[12]; 125 g ai/ha", "result": 85}, {"measurement": "Plant response rating, Foxtail, Green", "setting": "[13]; 16 g ai/ha", "result": 10}, {"measurement": "Plant response rating, Foxtail, Green", "setting": "[13]; 31 g ai/ha", "result": 10}, {"measurement": "Plant response rating, Foxtail, Green", "setting": "[13]; 62 g ai/ha", "result": 15}, {"measurement": "Plant response rating, Foxtail, Green", "setting": "[13]; 125 g ai/ha", "result": 20}, {"measurement": "Plant response rating, Kochia", "setting": "[14]; 16 g ai/ha", "result": 15}, {"measurement": "Plant response rating, Kochia", "setting": "[14]; 31 g ai/ha", "result": 20}, {"measurement": "Plant response rating, Kochia", "setting": "[14]; 62 g ai/ha", "result": 30}, {"measurement": "Plant response rating, Kochia", "setting": "[14]; 125 g ai/ha", "result": 50}, {"measurement": "Plant response rating, Pigweed", "setting": "[15]; 16 g ai/ha", "result": 55}, {"measurement": "Plant response rating, Pigweed", "setting": "[15]; 31 g ai/ha", "result": 60}, {"measurement": "Plant response rating, Pigweed", "setting": "[15]; 62 g ai/ha", "result": 70}, {"measurement": "Plant response rating, Pigweed", "setting": "[15]; 125 g ai/ha", "result": 90}, {"measurement": "Plant response rating, Speedwell", "setting": "[16]; 16 g ai/ha", "result": 40}, {"measurement": "Plant response rating, Speedwell", "setting": "[16]; 31 g ai/ha", "result": 75}, {"measurement": "Plant response rating, Speedwell", "setting": "[16]; 62 g ai/ha", "result": 100}, {"measurement": "Plant response rating, Speedwell", "setting": "[16]; 125 g ai/ha", "result": 100}, {"measurement": "Plant response rating, Buckwheat, Wild", "setting": "[17]; 16 g ai/ha", "result": 50}, {"measurement": "Plant response rating, Buckwheat, Wild", "setting": "[17]; 31 g ai/ha", "result": 70}, {"measurement": "Plant response rating, Buckwheat, Wild", "setting": "[17]; 62 g ai/ha", "result": 75}, {"measurement": "Plant response rating, Buckwheat, Wild", "setting": "[17]; 125 g ai/ha", "result": 75}, {"measurement": "Plant response rating, Mustard, Wild", "setting": "[18]; 16 g ai/ha", "result": 25}, {"measurement": "Plant response rating, Mustard, Wild", "setting": "[18]; 31 g ai/ha", "result": 35}, {"measurement": "Plant response rating, Mustard, Wild", "setting": "[18]; 62 g ai/ha", "result": 65}, {"measurement": "Plant response rating, Mustard, Wild", "setting": "[18]; 125 g ai/ha", "result": 95}, {"measurement": "Plant response rating, Radish, Wild", "setting": "[19]; 16 g ai/ha", "result": 25}, {"measurement": "Plant response rating, Radish, Wild", "setting": "[19]; 31 g ai/ha", "result": 80}, {"measurement": "Plant response rating, Radish, Wild", "setting": "[19]; 62 g ai/ha", "result": 80}, {"measurement": "Plant response rating, Radish, Wild", "setting": "[19]; 125 g ai/ha", "result": 85}, {"measurement": "Plant response rating, Barley, Winter", "setting": "[20]; 16 g ai/ha", "result": 0}, {"measurement": "Plant response rating, Barley, Winter", "setting": "[20]; 31 g ai/ha", "result": 5}, {"measurement": "Plant response rating, Barley, Winter", "setting": "[20]; 62 g ai/ha", "result": 5}, {"measurement": "Plant response rating, Barley, Winter", "setting": "[20]; 125 g ai/ha", "result": 5}, {"measurement": "Plant response rating, Wheat, Winter", "setting": "[21]; 16 g ai/ha", "result": 0}, {"measurement": "Plant response rating, Wheat, Winter", "setting": "[21]; 31 g ai/ha", "result": 0}, {"measurement": "Plant response rating, Wheat, Winter", "setting": "[21]; 62 g ai/ha", "result": 0}, {"measurement": "Plant response rating, Wheat, Winter", "setting": "[21]; 125 g ai/ha", "result": 0}]}]}
